Measured values as given in ChEMBL document CHEMBL1201862, “PubChem BioAssay data set” (2004).
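Cells were grown in 96-well plates and exposed to each compound for 48 hours at five concentrations; endpoints were interpolated linearly between bracketing concentrations, or set to the highest concentration if not reached. Here, GI50 denotes the concentration required for 50% inhibition of growth.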 Active and inactive are the calls of the source. Rule as the data show it: active = GI50 up to about 1.1 µM and inactive = higher.

Columns and labels:
Test in all cases: growth of human tumour cells (NCI), 48 h
SW-620 = system: SW-620
KM12 = system: KM12
HCT-116 = system: HCT-116
SK-MEL-28 = system: SK-MEL-28
CCRF-CEM = system: CCRF-CEM
MDA-MB-231 = system: MDA-MB-231
Malme-3M = system: Malme-3M
DU-145 = system: DU-145
MCF7 = system: MCF7
M14 = system: M14
T47D = system: T47D
RXF 393 = system: RXF 393
HCC 2998 = system: HCC 2998
ACHN = system: ACHN
PC-3 = system: PC-3
SK-MEL-2 = system: SK-MEL-2
HT-29 = system: HT-29
HL-60 = system: HL-60
OVCAR-5 = system: OVCAR-5
IGROV-1 = system: IGROV-1

SMILES	GI50 (SW-620)	GI50 (KM12)	GI50 (HCT-116)	GI50 (SK-MEL-28)	GI50 (CCRF-CEM)	GI50 (MDA-MB-231)	GI50 (Malme-3M)	GI50 (DU-145)	GI50 (MCF7)	GI50 (M14)	GI50 (T47D)	GI50 (RXF 393)	GI50 (HCC 2998)	GI50 (ACHN)	GI50 (PC-3)	GI50 (SK-MEL-2)	GI50 (HT-29)	GI50 (HL-60)	GI50 (OVCAR-5)	GI50 (IGROV-1)
CN(C)CC1CCCc2ccccc2C1=O (stereo not given)	0.54 µM (active)	1.98 µM (inactive)	1.85 µM (inactive)	6.03 µM (inactive)	0.107 µM (active)	5.07 µM (inactive)	1.77 µM (inactive)	6.1 µM (inactive)	0.231 µM (active)	1.85 µM (inactive)	7.73 µM (inactive)	6.55 µM (inactive)	6.31 µM (inactive)	1.75 µM (inactive)	1.57 µM (inactive)	2.02 µM (inactive)	1.82 µM (inactive)	2.66 µM (inactive)	17.5 µM (inactive)	2.06 µM (inactive)
O=C(O)CCC1NC(/C(=C/c2ccccc2O)NC(=O)c2ccccc2)OC1=O (stereo not given)	> 100 µM (inactive)	4.57 µM (inactive)	67.3 µM (inactive)	> 100 µM (inactive)	> 100 µM (inactive)	46.9 µM (inactive)	> 100 µM (inactive)	> 100 µM (inactive)	3.39 µM (inactive)	> 100 µM (inactive)	16 µM (inactive)	34.2 µM (inactive)	> 100 µM (inactive)	33 µM (inactive)	> 100 µM (inactive)	> 100 µM (inactive)	> 100 µM (inactive)	> 100 µM (inactive)	> 100 µM (inactive)	30.5 µM (inactive)
CC(C)C(OC(=O)c1ccc(NCc2cc(O)ccc2O)cc1)C(C)C	1.96 µM (inactive)	2.6 µM (inactive)	2.76 µM (inactive)	1.45 µM (inactive)	0.102 µM (active)	2.07 µM (inactive)	1.77 µM (inactive)	7.01 µM (inactive)	2.87 µM (inactive)	2.28 µM (inactive)	0.871 µM (active)	0.479 µM (active)	2.96 µM (inactive)	1.02 µM (active)	1.32 µM (inactive)	2.35 µM (inactive)	3.34 µM (inactive)	0.135 µM (active)	2.09 µM (inactive)	0.855 µM (active)
CC1(C)C=C(S(=O)(=O)c2ccccc2)Oc2ccccc2O1	75.9 µM (inactive)	43.6 µM (inactive)	29.5 µM (inactive)	41.7 µM (inactive)	40.1 µM (inactive)	> 100 µM (inactive)	26.2 µM (inactive)	91 µM (inactive)	43.5 µM (inactive)	46 µM (inactive)	19.8 µM (inactive)	34.8 µM (inactive)	15.7 µM (inactive)	34.8 µM (inactive)	27.9 µM (inactive)	52.4 µM (inactive)	39.6 µM (inactive)	20.5 µM (inactive)	> 100 µM (inactive)	44.2 µM (inactive)
CNC(=O)N(CCC#N)CCCN(C(=O)N(C)C)c1ccccc1	> 100 µM (inactive)	> 100 µM (inactive)	> 100 µM (inactive)	> 100 µM (inactive)	> 100 µM (inactive)	> 100 µM (inactive)	> 100 µM (inactive)	> 100 µM (inactive)	> 100 µM (inactive)	> 100 µM (inactive)	> 100 µM (inactive)	> 100 µM (inactive)	> 100 µM (inactive)	> 100 µM (inactive)	> 100 µM (inactive)	> 100 µM (inactive)	> 100 µM (inactive)	> 100 µM (inactive)	> 100 µM (inactive)	> 100 µM (inactive)
CC[C@]12C=CCN3CC[C@@]4(c5cc(N=O)c(OC)cc5N(C)[C@H]4[C@@](O)(C(=O)OC)[C@@H]1OC(C)=O)[C@@H]32	31.6 µM (inactive)	90.8 µM (inactive)	50.7 µM (inactive)	> 100 µM (inactive)	21.6 µM (inactive)	39.4 µM (inactive)	71.3 µM (inactive)	> 100 µM (inactive)	24.5 µM (inactive)	89.5 µM (inactive)	35 µM (inactive)	44.1 µM (inactive)	> 100 µM (inactive)	61.7 µM (inactive)	40.8 µM (inactive)	18 µM (inactive)	48.5 µM (inactive)	37.8 µM (inactive)	> 100 µM (inactive)	> 100 µM (inactive)
COc1cc2c(c(O)c1C)C(=O)C(Cl)=CC2=O	3.06 µM (inactive)	19.5 µM (inactive)	8.28 µM (inactive)	18.8 µM (inactive)	0.918 µM (active)	12 µM (inactive)	4.21 µM (inactive)	6.46 µM (inactive)	6.85 µM (inactive)	6.47 µM (inactive)	2.17 µM (inactive)	6.31 µM (inactive)	22.3 µM (inactive)	6.4 µM (inactive)	15.2 µM (inactive)	15.6 µM (inactive)	10.8 µM (inactive)	0.933 µM (active)	28.5 µM (inactive)	20.4 µM (inactive)
CCC1(O)C=CC(=O)C=C1	36.7 µM (inactive)	15 µM (inactive)	36.1 µM (inactive)	23.3 µM (inactive)	60.7 µM (inactive)	17.2 µM (inactive)	8.77 µM (inactive)	23.9 µM (inactive)	24 µM (inactive)	17.5 µM (inactive)	22.7 µM (inactive)	18.4 µM (inactive)	40.8 µM (inactive)	20.6 µM (inactive)	20.9 µM (inactive)	31.1 µM (inactive)	31.8 µM (inactive)	35 µM (inactive)	33.1 µM (inactive)	17.2 µM (inactive)
CN(C)c1cccc(F)c1C(=O)NC(=O)Nc1ccc(Cl)cc1	1.24 µM (inactive)	2.92 µM (inactive)	1.77 µM (inactive)	17.6 µM (inactive)	0.745 µM (active)	14.8 µM (inactive)	1.76 µM (inactive)	4.03 µM (inactive)	2.17 µM (inactive)	1.93 µM (inactive)	4.86 µM (inactive)	3.67 µM (inactive)	1.4 µM (inactive)	4.79 µM (inactive)	2.83 µM (inactive)	2.29 µM (inactive)	1.07 µM (active)	0.533 µM (active)	8.09 µM (inactive)	3.78 µM (inactive)
C#C[C@]1(O)CC[C@H]2[C@@H]3CCC4=C/C(=N\OCCN5CCCC5)CC[C@]4(C)[C@H]3CC[C@@]21C	13.5 µM (inactive)	5.36 µM (inactive)	8.36 µM (inactive)	14.9 µM (inactive)	14.6 µM (inactive)	19.2 µM (inactive)	10.8 µM (inactive)	19 µM (inactive)	4.72 µM (inactive)	9.82 µM (inactive)	16.1 µM (inactive)	13.5 µM (inactive)	16.6 µM (inactive)	17 µM (inactive)	6.28 µM (inactive)	9.18 µM (inactive)	12.7 µM (inactive)	5.35 µM (inactive)	19.2 µM (inactive)	4.79 µM (inactive)
Nc1c(S(=O)(=O)O)cc(Nc2cccc(S(=O)(=O)/C=C/S(=O)(=O)O)c2)c2c1C(=O)c1ccccc1C2=O	> 100 µM (inactive)	> 100 µM (inactive)	> 100 µM (inactive)	> 100 µM (inactive)	> 100 µM (inactive)	> 100 µM (inactive)	> 100 µM (inactive)	> 100 µM (inactive)	> 100 µM (inactive)	> 100 µM (inactive)	> 100 µM (inactive)	14.2 µM (inactive)	> 100 µM (inactive)	> 100 µM (inactive)	> 100 µM (inactive)	> 100 µM (inactive)	> 100 µM (inactive)	> 100 µM (inactive)	> 100 µM (inactive)	> 100 µM (inactive)
c1ccc2c(c1)CCN(C1=NCCO1)C2	> 10 µM (inactive)	> 10 µM (inactive)	> 10 µM (inactive)	> 10 µM (inactive)	> 10 µM (inactive)	> 10 µM (inactive)	> 10 µM (inactive)	> 10 µM (inactive)	> 10 µM (inactive)	> 10 µM (inactive)	> 10 µM (inactive)	> 10 µM (inactive)	> 10 µM (inactive)	> 10 µM (inactive)	> 10 µM (inactive)	> 10 µM (inactive)	> 10 µM (inactive)	> 10 µM (inactive)	> 10 µM (inactive)	> 10 µM (inactive)
C[S+]([O-])c1cc(=O)c2ccccc2s1 (stereo not given)	1.91 µM (inactive)	12.6 µM (inactive)	2.55 µM (inactive)	4.2 µM (inactive)	1.7 µM (inactive)	12.6 µM (inactive)	2.3 µM (inactive)	18.7 µM (inactive)	5.42 µM (inactive)	1.67 µM (inactive)	2.52 µM (inactive)	2.94 µM (inactive)	7.64 µM (inactive)	1.91 µM (inactive)	15.5 µM (inactive)	10.8 µM (inactive)	4.35 µM (inactive)	1.99 µM (inactive)	9.42 µM (inactive)	17.5 µM (inactive)
COc1cc(-c2cc(=O)c3c(OC)c(OC)c(OC)cc3o2)c(OC)c(OC)c1OC	> 75 µM (inactive)	> 75 µM (inactive)	> 75 µM (inactive)	> 75 µM (inactive)	65.2 µM (inactive)	63.4 µM (inactive)	> 75 µM (inactive)	> 75 µM (inactive)	> 75 µM (inactive)	> 75 µM (inactive)	49.3 µM (inactive)	52.1 µM (inactive)	> 75 µM (inactive)	> 75 µM (inactive)	23.6 µM (inactive)	45.6 µM (inactive)	> 75 µM (inactive)	16.9 µM (inactive)	> 75 µM (inactive)	> 75 µM (inactive)
